Laboratory results: PubChem BioAssay (NCI)
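Compound exposure: 48 hours, 5 concentrations, 96-well plates. GI50 marks 50% less growth. TGI is the concentration that stops growth completely.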

Columns and labels:
Assay in all cases: inhibition of tumour cell growth, NCI panel, 48 h
ACHN renal = test system: ACHN renal
BT-549 breast = test system: BT-549 breast
HCT-15 colon = test system: HCT-15 colon
K-562 leukemia = test system: K-562 leukemia
RPMI-8226 leukemia = test system: RPMI-8226 leukemia
SF-539 CNS = test system: SF-539 CNS
SK-MEL-5 melanoma = test system: SK-MEL-5 melanoma
SNB-19 CNS = test system: SNB-19 CNS
SW-620 colon = test system: SW-620 colon
UACC-62 melanoma = test system: UACC-62 melanoma

SMILES	GI50 (ACHN renal) [µM]	TGI (ACHN renal) [µM]	GI50 (BT-549 breast) [µM]	TGI (BT-549 breast) [µM]	GI50 (HCT-15 colon) [µM]	TGI (HCT-15 colon) [µM]	GI50 (K-562 leukemia) [µM]	TGI (K-562 leukemia) [µM]	GI50 (RPMI-8226 leukemia) [µM]	TGI (RPMI-8226 leukemia) [µM]	GI50 (SF-539 CNS) [µM]	TGI (SF-539 CNS) [µM]	GI50 (SK-MEL-5 melanoma) [µM]	TGI (SK-MEL-5 melanoma) [µM]	GI50 (SNB-19 CNS) [µM]	TGI (SNB-19 CNS) [µM]	GI50 (SW-620 colon) [µM]	TGI (SW-620 colon) [µM]	GI50 (UACC-62 melanoma) [µM]	TGI (UACC-62 melanoma) [µM]
NCCOc1ncccc1/C=C1\c2ccccc2-c2ccc([N+](=O)[O-])cc21	0.0235	0.119	0.181	0.994	0.0266	0.871	0.0337	1.23	0.0383	0.317	0.135	0.362	0.101	0.253	0.0356	1.04	0.0725	0.834	0.0784	0.386
CN1CCN(CCCOc2cccc3nc(Nc4ccc(F)c(F)c4)ccc23)CC1	4.57	9.17	4.34	8.85	0.956	3.42	0.662	1.49	5.2	12.3	4.03	8.56	4.44	8.69	4.89	10.2	1.82	10.5	0.695	1.6
OC(COc1ccccc1)CN1CCCCC1 (stereo not drawn)		> 100		> 100		> 100		> 100		> 100		> 100		> 100		> 100		> 100		> 100
O=C(Oc1ccccc1)C(Br)C(Br)c1ccccc1 (stereo not drawn)	2.06	3.79	11.7	25.6	2.32	6.24	1.95	9	2.75	7.9	4.76	16.4	13.1	25.8	11.9	24.6	1.74	3.29	5.51	18.2
CCc1nn2ncccc2c1-c1ccnc(NC2CC2)n1	> 25	> 25	> 25	> 25	> 25	> 25	> 25	> 25	> 25	> 25	> 25	> 25	> 25	> 25	> 25	> 25	> 25	> 25	> 25	> 25
Nc1nc2c(ccc3ccccc32)s1	> 100	> 100	> 100	> 100	> 100	> 100	91.5	> 100	43.8	> 100	> 100	> 100	72.7	> 100	> 100	> 100	> 100	> 100	75.8	> 100
Cc1c(C)c2c(c(C)c1OCC(=O)O)CC[C@@](C)(CCC[C@@H](C)CCC[C@@H](C)CCCC(C)C)O2	53.1	112	71.7	151	40.8	120	62.5	287	56.3	214	78.1	153	58	122	95.8	196	81.9	218	61.1	126
CCOc1ccc(C(C)=O)cc1NC(=O)c1cccc(-c2nnn(CC)n2)c1	0.748	70.3	0.961	> 100	0.419	> 100	0.454	> 100	1.22	> 100	0.346	3.54	0.465	16.5	1.29	76.6	0.492	> 100	0.615	23.4
COc1cccc(NC(=O)c2sc3nc4c(cc3c2N)C(O)CCC4)c1 (stereo not drawn)	0.956	> 100	0.274	> 100	0.0856	> 100	0.0406	> 100	0.333	> 100	0.14	0.606	0.311	8.29	2.12	> 93.2	0.107	> 100	0.15	> 100
CC1=C(C#N)C(/C=C(\Cl)c2ccc(F)cc2)C(C#N)=C(C)N1	> 100	> 100	> 100	> 100	> 100	> 100	> 100	> 100	36.3	> 100	> 100	> 100	> 100	> 100	> 100	> 100	> 100	> 100	81	> 100
COc1ccc(-c2n[nH]nc2-c2cc(OC)c3c(c2)OCO3)cc1	0.0648	> 100	0.0847	28.9	< 0.01	> 36.2	< 0.01	> 100	0.0319	32.5	0.0154	0.0449	0.0267	0.899	0.0441	> 100	< 0.0117	> 100	< 0.01	49.2
CCN(CC)c1ccc(/C=N/NC(=O)CSc2nc3ccccc3c(=O)n2Cc2ccc(S(N)(=O)=O)cc2)c(O)c1	1.58	> 100	2.68	> 100	3.62	> 100	0.592	> 100	0.521	4.85	1.26	> 100	1.57	4.97	2.1	> 100	0.949	> 100	0.886	5.44
NC(CSC(c1ccccc1)(c1ccccc1)c1ccc(F)cc1)C(=O)O (stereo not drawn)	5.04	> 100	1.64	86.8	0.511	> 100	0.356		0.279	12.7	0.285	0.921	0.382	> 70.9	0.458	> 47.4	0.43	> 100	0.408	
CCc1nc2cc(/C=C/C(=O)NO)ccc2c(=O)n1CCc1ccc(OC)cc1	1.85	4.36	4.02	34.6	3.24	> 100	3.07	> 100	2.38	56.1	1.91	6.29	1.96	5.09	3.21	21.4	1.93	13	1.59	4.33
